Measured values from patent US4687769A, “3-(3,3,3-trifluoropropenyl) cephalosporins” (Meiji Seika Kaisha, Ltd., priority 1984, dated 1987).
Values after ≈ are worked out from the molar mass of the structure shown.

Tests used:
Assay in all cases: Minimum inhibitory concentration (MIC)
Type in all cases: cell-based
[1] = system: Escherichia coli NIHJ JC-2; settings: NIHJJC2, read-out: Minimum inhibitory concentrations (MIC)
Description: (§1) The cephem compounds (I) of this invention and the salts or ester thereof are all novel compounds which are useful as antibacterial agent. To illustrate the utility of the new compound of this invention, we have determined and show below the minimum inhibitory concentrations of some representative examples of the new cephem compounds of this invention against growth of various bacteria in Table 1.

[2] = system: Klebsiella pneumoniae PCI-602; settings: PCI602, read-out: Minimum inhibitory concentrations (MIC)
Description: as §1

Proteus mirabilis GN-79 = settings: GN79, read-out: Minimum inhibitory concentrations (MIC)
Description: as §1

Proteus rettgeri GN-624 = settings: Providencia rettgeri, GN624, read-out: Minimum inhibitory concentrations (MIC)
Description: as §1

Proteus vulgaris GN-76 = settings: GN76, read-out: Minimum inhibitory concentrations (MIC)
Description: as §1

[3] = system: Pseudomonas cepacia M-0527; settings: Burkholderia cepacia, M0527, read-out: Minimum inhibitory concentrations (MIC)
Description: as §1

[4] = system: Salmonella typhimurium LT-2; settings: Salmonella enterica, read-out: Minimum inhibitory concentrations (MIC)
Description: as §1

[5] = system: Serratia marcescens No. 1; settings: read-out: Minimum inhibitory concentrations (MIC)
Description: as §1

[6] = system: Staphylococcus aureus 209P JC-1; settings: read-out: Minimum inhibitory concentrations (MIC)
Description: as §1

[7] = system: Staphylococcus aureus Smith; settings: read-out: Minimum inhibitory concentrations (MIC)
Description: as §1

Row | MIC [1] [µg/mL] | MIC [2] [µg/mL] | MIC (Proteus mirabilis GN-79) [µg/mL] | MIC (Proteus rettgeri GN-624) [µg/mL] | MIC (Proteus vulgaris GN-76) [µg/mL] | MIC [3] [µg/mL] | MIC [4] [µg/mL] | MIC [5] [µg/mL] | MIC [6] [µg/mL] | MIC [7] [µg/mL] | Compound
1 | 0.78 (≈ 1.63 µM) | 0.39 (≈ 0.817 µM) | 0.39 (≈ 0.817 µM) | 3.13 (≈ 6.56 µM) | 0.2 (≈ 0.419 µM) | 6.25 (≈ 13.1 µM) | 0.39 (≈ 0.817 µM) | 0.2 (≈ 0.419 µM) | 0.2 (≈ 0.419 µM) | 0.39 (≈ 0.817 µM) | CO/N=C(\C(=O)NC1C(=O)N2C(C(=O)O)=C(/C=C\C(F)(F)F)CSC12)c1csc(N)n1 (stereo not drawn) [Compound (A), 7-[2-methoxyimino-2-(2-aminothiazol-4-yl)acetamido]-3-(3,3,3-trifluoropropenyl)-3-cephem-4-carboxylic acid (syn-isomer, cis-isomer)]
2 | 0.39 (≈ 0.817 µM) | 0.39 (≈ 0.817 µM) | 0.39 (≈ 0.817 µM) | 1.56 (≈ 3.27 µM) | 0.2 (≈ 0.419 µM) | 6.25 (≈ 13.1 µM) | 0.2 (≈ 0.419 µM) | 0.39 (≈ 0.817 µM) | 0.39 (≈ 0.817 µM) | 0.78 (≈ 1.63 µM) | CO/N=C(\C(=O)NC1C(=O)N2C(C(=O)O)=C(/C=C/C(F)(F)F)CSC12)c1csc(N)n1 (stereo not drawn) [Compound (B), 7-[2-methoxyimino-2-(2-aminothiazol-4-yl)acetamido]-3-(3,3,3-trifluoropropenyl)-3-cephem-4-carboxylic acid (syn-isomer, trans-isomer)]
